Results on 24 molecules are retold here after patent US10457703B2, “Bile acid derivatives as FXR/TGR5 agonists and methods of use thereof” (ENANTA PHARMACEUTICALS, INC., priority 2015, dated 2019).

pEC50: −log10 of the molar value.

One may read the pEC50 as the EC50 on a negative log10 scale, so that one unit is a factor of ten. A low value points to a high EC50.

The assay has as its target human FXR (NR1H4) (Homo sapiens (Human), UniProt Q96RI1). Put plainly: Human FXR (NR1H4) Assay (Gal4 promoter driven luciferase reporter, Indigo Bioscience kit).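 For Efficacy (%): 100% equals the efficacy of CDCA; efficacy normalized to CDCA set as 100%.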 Type of assay: cell-based. Conditions: for pEC50: Human FXR (NR1H4) Assay, potency ranges; for Emax: read-out: Efficacy (%). Summed up:
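CHO reporter cells expressing human FXR with an FXR-responsive luciferase reporter, treated with compound doses at 0.2% DMSO. Incubation lasted 22 h at 37 °C before luciferase detection reagent was added. Luminescence was then read.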

human FXR (NR1H4), sequence (Q96RI1 whole entry, the tested form may be a part): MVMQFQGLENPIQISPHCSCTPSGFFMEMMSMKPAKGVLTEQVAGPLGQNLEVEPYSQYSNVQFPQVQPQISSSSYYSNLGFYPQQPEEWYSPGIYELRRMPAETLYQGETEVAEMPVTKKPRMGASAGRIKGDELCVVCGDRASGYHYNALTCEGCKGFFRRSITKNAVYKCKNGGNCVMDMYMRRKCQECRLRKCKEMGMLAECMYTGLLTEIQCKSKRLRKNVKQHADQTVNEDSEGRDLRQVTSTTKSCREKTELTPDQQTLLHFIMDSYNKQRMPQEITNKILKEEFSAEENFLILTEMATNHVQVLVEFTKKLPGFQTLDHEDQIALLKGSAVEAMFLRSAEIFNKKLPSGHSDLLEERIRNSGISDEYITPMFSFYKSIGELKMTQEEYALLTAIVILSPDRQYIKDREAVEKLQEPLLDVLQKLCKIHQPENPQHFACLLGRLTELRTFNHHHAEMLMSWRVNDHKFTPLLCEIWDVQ

As for `CC[C@H]1[C@@H](O)[C@@H]2[C@H](CC[C@]3(C)[C@@H]([C@H](C)CCCOC(=O)NS(=O)(=O)C(C)(C)C)CC[C@@H]23)[C@@]2(C)CC[C@@H](O)C[C@@H]12` [Example 117], the pEC50 is 6.00 to 7.00 and the Emax was found to be 365%.

With `CCCCS(=O)(=O)NC(=O)OCC[C@@H](C)[C@H]1CC[C@H]2[C@@H]3[C@H](O)[C@H](CC)[C@@H]4C[C@H](O)CC[C@]4(C)[C@H]3CC[C@]12C` [Example 57], the pEC50 is greater than 7.00 and the Emax was found to be 392%.

Take `CC[C@H]1[C@@H](O)[C@@H]2[C@H](CC[C@]3(C)[C@@H]([C@H](C)CCOC(=O)NS(=O)(=O)c4ccccc4)CC[C@@H]23)[C@@]2(C)CC[C@@H](O)C[C@@H]12` [Example 60]: the pEC50 was greater than 7.00 and the Emax is 309%.

As for `CC[C@H]1[C@@H](O)[C@@H]2[C@H](CC[C@]3(C)[C@@H]([C@H](C)COC(=O)NS(=O)(=O)c4ccc(-c5ncco5)nc4)CC[C@@H]23)[C@@]2(C)CC[C@@H](O)C[C@@H]12` [Example 44-o], the pEC50 was 6.00 to 7.00 and the Emax was 292%.

For the molecule `CC[C@H]1[C@@H](O)[C@@H]2[C@H](CC[C@]3(C)[C@@H]([C@H](C)COC(=O)NS(=O)(=O)c4ccc(N5CCCCC5)nc4)CC[C@@H]23)[C@@]2(C)CC[C@@H](O)C[C@@H]12` [Example 14], the pEC50 is greater than 7.00 and the Emax came to 270%.

For `CC[C@H]1[C@@H](O)[C@@H]2[C@H](CC[C@]3(C)[C@@H]([C@H](C)CCCOC(=O)NS(=O)(=O)N4CCCC4)CC[C@@H]23)[C@@]2(C)CC[C@@H](O)C[C@@H]12` [Example 119], the pEC50 is 5.00 to 6.00 and the Emax was 370%.

For the molecule `CC[C@H]1[C@@H](O)[C@@H]2[C@H](CC[C@]3(C)[C@@H]([C@H](C)CCOC(=O)NS(=O)(=O)c4ccc(-c5ccccc5)cc4)CC[C@@H]23)[C@@]2(C)CC[C@@H](O)C[C@@H]12` [Example 68], the pEC50 was 6.00 to 7.00 and the Emax is 286%.

In the case of `CC[C@H]1[C@@H](O)[C@@H]2[C@H](CC[C@]3(C)[C@@H]([C@H](C)CCOC(=O)N4CCC(C(N)=O)CC4)CC[C@@H]23)[C@@]2(C)CC[C@@H](O)C[C@@H]12` [Example 171], the pEC50 was 6.00 to 7.00 and the Emax turned out to be 179%.

As for `CC[C@H]1[C@@H](O)[C@@H]2[C@H](CC[C@]3(C)[C@@H]([C@H](C)CCOC(=O)NS(=O)(=O)C4(C)CC4)CC[C@@H]23)[C@@]2(C)CC[C@@H](O)C[C@@H]12` [Example 49], the pEC50 is greater than 7.00 and the Emax worked out at 269%.

For the molecule `CC[C@H]1[C@@H](O)[C@@H]2[C@H](CC[C@]3(C)[C@@H]([C@H](C)CCOC(=O)NS(=O)(=O)c4ccccc4Cl)CC[C@@H]23)[C@@]2(C)CC[C@@H](O)C[C@@H]12` [Example 76], the pEC50 is 6.00 to 7.00 and the Emax was found to be 234%.

As to `CC[C@H]1[C@@H](O)[C@@H]2[C@H](CC[C@]3(C)[C@@H]([C@H](C)CCOC(=O)NS(=O)(=O)c4ccc5ccccc5c4)CC[C@@H]23)[C@@]2(C)CC[C@@H](O)C[C@@H]12` [Example 88], the pEC50 is greater than 7.00 and the Emax amounted to 236%.

For `CCOC(=O)C1CCN(C(=O)OCC[C@@H](C)[C@H]2CC[C@H]3[C@@H]4[C@H](O)[C@H](CC)[C@@H]5C[C@H](O)CC[C@]5(C)[C@H]4CC[C@]23C)CC1` [Example 145], the negative logarithm of the EC50 (pEC50) is 5.00 to 6.00 and the Emax came out at 247%.

Regarding `CC[C@H]1[C@@H](O)[C@@H]2[C@H](CC[C@]3(C)[C@@H]([C@H](C)COC(=O)NS(=O)(=O)c4ccc(C5CCCCC5)cc4)CC[C@@H]23)[C@@]2(C)CC[C@@H](O)C[C@@H]12` [Example 11], the pEC50 is greater than 7.00 and the Emax was 224%.

With `CC[C@H]1[C@@H](O)[C@@H]2[C@H](CC[C@]3(C)[C@@H]([C@H](C)CCCOC(=O)NCc4ccccc4)CC[C@@H]23)[C@@]2(C)CC[C@@H](O)C[C@@H]12` [Example 124], the pEC50 is 6.00 to 7.00 and the Emax was found to be 225%.

For `CC[C@H]1[C@@H](O)[C@@H]2[C@H](CC[C@]3(C)[C@@H]([C@H](C)CCOC(=O)N[C@@H](C)C4CC4)CC[C@@H]23)[C@@]2(C)CC[C@@H](O)C[C@@H]12` [Example 175], the pEC50 was 6.00 to 7.00 and the Emax was found to be 210%.

For `CC[C@H]1[C@@H](O)[C@@H]2[C@H](CC[C@]3(C)[C@@H]([C@H](C)CCCOC(=O)NS(=O)(=O)c4ccc(C(C)(C)C)cc4)CC[C@@H]23)[C@@]2(C)CC[C@@H](O)C[C@@H]12` [Example 111], the pEC50 is 6.00 to 7.00 and the Emax was 208%.

In the case of `CC[C@H]1[C@@H](O)[C@@H]2[C@H](CC[C@]3(C)[C@@H]([C@H](C)CCOC(=O)NC4CCCCCC4)CC[C@@H]23)[C@@]2(C)CC[C@@H](O)C[C@@H]12` [Example 138], the pEC50 was 6.00 to 7.00 and the Emax was 297%.

In the case of `CC[C@H]1[C@@H](O)[C@@H]2[C@H](CC[C@]3(C)[C@@H]([C@H](C)CCOC(=O)NS(=O)(=O)N4CCCCC4)CC[C@@H]23)[C@@]2(C)CC[C@@H](O)C[C@@H]12` [Example 69], the pEC50 is greater than 7.00 and the Emax was 368%.

As for `CC[C@H]1[C@@H](O)[C@@H]2[C@H](CC[C@]3(C)[C@@H]([C@H](C)CCCOC(=O)Nc4ccc(C(C)(C)C)cc4)CC[C@@H]23)[C@@]2(C)CC[C@@H](O)C[C@@H]12` [Example 121], the negative-log EC50 (pEC50) is 5.00 to 6.00 and the Emax came out at 8%.

With `CC[C@H]1[C@@H](O)[C@@H]2[C@H](CC[C@]3(C)[C@@H]([C@H](C)CCOC(=O)NS(=O)(=O)N(C)C)CC[C@@H]23)[C@@]2(C)CC[C@@H](O)C[C@@H]12` [Example 50], the pEC50 was greater than 7.00 and the Emax was 291%.

Turning to `CC[C@H]1[C@@H](O)[C@@H]2[C@H](CC[C@]3(C)[C@@H]([C@H](C)CCOC(=O)NS(=O)(=O)c4cccc(C(F)(F)F)c4)CC[C@@H]23)[C@@]2(C)CC[C@@H](O)C[C@@H]12` [Example 78], the pEC50 is 6.00 to 7.00 and the Emax stood at 365%.

`CC[C@H]1[C@@H](O)[C@@H]2[C@H](CC[C@]3(C)[C@@H]([C@H](C)CCOC(=O)NS(=O)(=O)c4ccncc4)CC[C@@H]23)[C@@]2(C)CC[C@@H](O)C[C@@H]12` [Example 73]: the pEC50 is 5.00 to 6.00 and the Emax was 352%.

Regarding `CC[C@H]1[C@@H](O)[C@@H]2[C@H](CC[C@]3(C)[C@@H]([C@H](C)CCOC(=O)N4CCC[C@H]4CO)CC[C@@H]23)[C@@]2(C)CC[C@@H](O)C[C@@H]12` [Example 210], the pEC50 is greater than 7.00 and the Emax was determined as 156%.

`CC[C@H]1[C@@H](O)[C@@H]2[C@H](CC[C@]3(C)[C@@H]([C@H](C)CCCOC(=O)NS(=O)(=O)c4ccc5ccccc5c4)CC[C@@H]23)[C@@]2(C)CC[C@@H](O)C[C@@H]12` [Example 115]: the pEC50 is 6.00 to 7.00 and the Emax came out at 376%.
